# According to ChEMBL document CHEMBL5543172, “Novel Isoalantolactone-Based Derivatives as Potent NLRP3 Inflammasome Inhibitors: Design, Synthesis, and Biological Characterization” (J Med Chem, 2024):
# Activity calls are given as the source filed them. The rule behind the calls is not given here.
# Assays:
# [1] = biological target: NACHT, LRR and PYD domains-containing protein 3 (Mus musculus, UniProt Q8R4B8); experiment: Inhibition of NLRP3 inflammasome activation in LPS-activated mouse BMDM cells assessed as inhibition of nigericin induced IL-1beta secretion preincubated with LPS for 3 hrs followed by compound addition for 40 mins and further stimulated with nigericin for 40 mins by ELISA method; format: cell-based
# Sequence of NACHT, LRR and PYD domains-containing protein 3 (Q8R4B8 whole entry, the tested form may be a part): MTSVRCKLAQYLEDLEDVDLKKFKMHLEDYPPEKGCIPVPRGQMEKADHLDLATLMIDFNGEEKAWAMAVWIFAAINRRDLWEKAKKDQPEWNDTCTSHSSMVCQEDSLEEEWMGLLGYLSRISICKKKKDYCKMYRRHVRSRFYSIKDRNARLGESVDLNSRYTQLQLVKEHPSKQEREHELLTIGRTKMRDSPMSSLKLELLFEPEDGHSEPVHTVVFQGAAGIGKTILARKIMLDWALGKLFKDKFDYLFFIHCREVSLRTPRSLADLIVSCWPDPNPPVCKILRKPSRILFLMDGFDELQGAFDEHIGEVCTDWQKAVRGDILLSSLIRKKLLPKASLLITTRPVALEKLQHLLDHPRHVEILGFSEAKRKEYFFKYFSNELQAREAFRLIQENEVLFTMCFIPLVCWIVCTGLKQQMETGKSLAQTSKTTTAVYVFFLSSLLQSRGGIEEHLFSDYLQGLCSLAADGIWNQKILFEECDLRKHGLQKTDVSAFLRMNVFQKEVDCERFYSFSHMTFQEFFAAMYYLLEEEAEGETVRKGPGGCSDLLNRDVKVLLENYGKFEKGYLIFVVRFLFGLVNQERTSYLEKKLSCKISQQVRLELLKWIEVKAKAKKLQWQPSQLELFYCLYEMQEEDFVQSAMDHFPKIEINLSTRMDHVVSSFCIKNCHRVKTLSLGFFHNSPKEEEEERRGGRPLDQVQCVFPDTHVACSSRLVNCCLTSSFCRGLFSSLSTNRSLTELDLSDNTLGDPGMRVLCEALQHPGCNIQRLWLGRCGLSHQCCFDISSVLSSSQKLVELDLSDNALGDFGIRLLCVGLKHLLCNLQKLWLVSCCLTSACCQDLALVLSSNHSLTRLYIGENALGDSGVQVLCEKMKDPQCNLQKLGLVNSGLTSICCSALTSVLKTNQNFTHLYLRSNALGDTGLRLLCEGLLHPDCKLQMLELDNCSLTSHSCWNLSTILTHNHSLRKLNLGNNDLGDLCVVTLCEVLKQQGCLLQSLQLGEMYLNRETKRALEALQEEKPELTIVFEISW
# Mus musculus [2] = experiment: Anti-colitis activity against DSS-induced ulcerative colitis C57BL/6 mouse model assessed as reduction in TNF-alpha level at 15 to 30 mg/kg, ip by ELISA method; format: functional, organism-based; details: dose 15-30 mg/kg
# [3] = biological target: NACHT, LRR and PYD domains-containing protein 3 (Mus musculus) (UniProt Q8R4B8); experiment: Inhibition of NLRP3 in LPS/nigericin induced […] mouse BMDM cells assessed as inhibition of IL-18 secretion 0.25 to 1 uM preincubated with LPS for 3 hrs followed by compound addition for 40 mins and further stimulated with nigericin for 40 mins by ELISA method; format: cell-based; details: dose 0.25-1 µM, time 80.0 min
# Sequence of NACHT, LRR and PYD domains-containing protein 3 (Mus musculus) (Q8R4B8 whole entry, the tested form may be a part): as above
# [4] = Half life in male C57BL/6 mouse at 30 mg/kg, ip measured upto 1440 mins by LC-MS/MS analysis; format: ADME, organism-based; details: in vivo
# [5] = biological target: Muscarinic acetylcholine receptor M3 (Homo sapiens) (UniProt P20309); experiment: Inhibition of muscarinic M3 receptor (unknown origin) at 1 uM relative to control
# Sequence of Muscarinic acetylcholine receptor M3 (Homo sapiens) (P20309 whole entry, looked up): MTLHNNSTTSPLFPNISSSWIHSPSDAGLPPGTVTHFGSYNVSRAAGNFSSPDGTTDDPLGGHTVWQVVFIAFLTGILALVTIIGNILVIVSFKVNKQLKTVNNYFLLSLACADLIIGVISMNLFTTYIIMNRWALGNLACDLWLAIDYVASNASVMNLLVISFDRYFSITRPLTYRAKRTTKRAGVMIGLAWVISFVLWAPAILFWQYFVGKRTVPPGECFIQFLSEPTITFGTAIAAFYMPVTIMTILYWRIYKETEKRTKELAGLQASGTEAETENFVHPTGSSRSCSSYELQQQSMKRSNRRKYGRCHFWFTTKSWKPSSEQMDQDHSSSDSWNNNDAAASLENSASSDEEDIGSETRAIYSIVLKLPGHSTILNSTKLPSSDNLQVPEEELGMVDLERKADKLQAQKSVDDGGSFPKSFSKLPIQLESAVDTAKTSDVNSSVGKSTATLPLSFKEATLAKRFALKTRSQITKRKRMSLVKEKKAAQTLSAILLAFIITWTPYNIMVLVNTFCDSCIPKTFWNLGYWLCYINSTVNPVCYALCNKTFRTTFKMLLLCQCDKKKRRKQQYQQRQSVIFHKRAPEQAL
# [6] = Metabolic stability in mouse liver microsomes assessed as half life preincubated for 5 mins followed by NADPH addition and measured upto 60 mins by LC-MS/MS analysis; format: ADME, Microsome; details: time < 65 min
# [7] = Cytotoxicity against human PBMC cells at 0.08 to 0.63 uM measured after 24 hrs by CCK-8 method; format: toxicity, cell-based; details: dose 0.08-0.63 µM
# [8] = biological target: Glucocorticoid receptor (Homo sapiens) (UniProt P04150); experiment: Inhibition of GR receptor (unknown origin) at 1 uM relative to control
# Sequence of Glucocorticoid receptor (Homo sapiens) (P04150 whole entry): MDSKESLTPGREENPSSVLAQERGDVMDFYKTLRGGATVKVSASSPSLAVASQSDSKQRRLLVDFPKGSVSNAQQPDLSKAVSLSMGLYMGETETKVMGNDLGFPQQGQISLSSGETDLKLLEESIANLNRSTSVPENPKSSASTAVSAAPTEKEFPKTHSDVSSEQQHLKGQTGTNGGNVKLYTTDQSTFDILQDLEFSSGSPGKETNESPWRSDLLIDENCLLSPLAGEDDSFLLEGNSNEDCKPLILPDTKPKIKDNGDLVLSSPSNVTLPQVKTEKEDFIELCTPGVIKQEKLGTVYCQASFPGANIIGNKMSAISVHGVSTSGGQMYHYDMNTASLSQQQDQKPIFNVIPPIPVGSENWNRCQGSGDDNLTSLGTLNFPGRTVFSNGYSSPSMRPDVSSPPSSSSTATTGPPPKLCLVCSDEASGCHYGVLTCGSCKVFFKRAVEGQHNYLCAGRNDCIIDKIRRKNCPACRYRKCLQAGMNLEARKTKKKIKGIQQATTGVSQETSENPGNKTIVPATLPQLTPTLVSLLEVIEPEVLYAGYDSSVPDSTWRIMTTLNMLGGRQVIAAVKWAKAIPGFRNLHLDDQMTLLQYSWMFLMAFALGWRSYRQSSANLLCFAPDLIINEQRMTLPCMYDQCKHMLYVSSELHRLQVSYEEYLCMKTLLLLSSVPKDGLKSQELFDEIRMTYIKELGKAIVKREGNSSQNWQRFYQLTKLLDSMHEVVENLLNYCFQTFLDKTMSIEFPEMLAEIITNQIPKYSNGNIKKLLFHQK
# [9] = biological target: Cannabinoid receptor 2 (Homo sapiens) (UniProt P34972); experiment: Activation of CB2 receptor (unknown origin) at 1 uM relative to control
# Sequence of Cannabinoid receptor 2 (Homo sapiens) (P34972 whole entry): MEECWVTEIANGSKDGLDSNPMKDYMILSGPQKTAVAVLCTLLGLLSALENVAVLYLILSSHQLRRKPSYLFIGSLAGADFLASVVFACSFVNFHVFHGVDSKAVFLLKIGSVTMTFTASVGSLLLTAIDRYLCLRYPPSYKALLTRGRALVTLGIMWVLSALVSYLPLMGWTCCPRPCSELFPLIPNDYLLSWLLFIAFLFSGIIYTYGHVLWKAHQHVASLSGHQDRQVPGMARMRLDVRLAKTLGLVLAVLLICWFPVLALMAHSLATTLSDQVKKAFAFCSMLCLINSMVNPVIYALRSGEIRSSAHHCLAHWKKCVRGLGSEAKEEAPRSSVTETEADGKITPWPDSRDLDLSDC
# [10] = biological target: Substance-P receptor (Homo sapiens) (UniProt P25103); experiment: Inhibition of NK1 receptor (unknown origin) at 1 uM relative to control
# Sequence of Substance-P receptor (Homo sapiens) (P25103 whole entry): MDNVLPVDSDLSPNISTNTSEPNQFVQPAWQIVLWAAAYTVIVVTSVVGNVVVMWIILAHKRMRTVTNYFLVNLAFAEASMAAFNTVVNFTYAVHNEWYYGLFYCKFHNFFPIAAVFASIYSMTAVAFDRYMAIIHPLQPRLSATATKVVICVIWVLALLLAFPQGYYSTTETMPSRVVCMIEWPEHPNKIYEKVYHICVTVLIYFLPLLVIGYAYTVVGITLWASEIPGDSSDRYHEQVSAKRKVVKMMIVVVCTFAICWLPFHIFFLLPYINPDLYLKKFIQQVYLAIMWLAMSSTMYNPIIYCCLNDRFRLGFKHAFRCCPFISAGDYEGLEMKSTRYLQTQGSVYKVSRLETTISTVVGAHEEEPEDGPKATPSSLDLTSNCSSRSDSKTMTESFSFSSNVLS
# [11] = biological target: Substance-K receptor (Homo sapiens) (UniProt P21452); experiment: Activation of NK2 receptor (unknown origin) at 1 uM relative to control
# Sequence of Substance-K receptor (Homo sapiens) (P21452 whole entry): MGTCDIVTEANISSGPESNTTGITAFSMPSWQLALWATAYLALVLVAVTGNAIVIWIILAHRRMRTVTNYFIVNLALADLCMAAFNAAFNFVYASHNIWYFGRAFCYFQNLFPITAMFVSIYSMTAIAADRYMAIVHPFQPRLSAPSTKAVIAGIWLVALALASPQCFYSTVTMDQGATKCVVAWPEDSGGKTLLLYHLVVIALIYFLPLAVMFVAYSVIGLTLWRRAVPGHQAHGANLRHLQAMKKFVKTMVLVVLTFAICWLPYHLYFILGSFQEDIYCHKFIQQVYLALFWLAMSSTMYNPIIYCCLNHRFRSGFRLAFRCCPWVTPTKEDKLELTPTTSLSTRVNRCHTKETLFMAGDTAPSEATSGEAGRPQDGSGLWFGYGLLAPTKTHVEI
# Cytochrome P450 1A2 = Cytochrome P450 1A2 (Homo sapiens, UniProt P05177); experiment: Inhibition of CYP1A2 in human liver microsomes using phenacetin as substrate preincubated for 5 mins followed by NADPH addition and measured after 30 to 60 mins by LC-MS/MS analysis; format: ADME, Microsome
# [12] = Cmax in male C57BL/6 mouse at 30 mg/kg, ip measured upto 1440 mins by LC-MS/MS analysis; format: ADME, organism-based; details: in vivo
# [13] = biological target: NACHT, LRR and PYD domains-containing protein 3 (Mus musculus) (UniProt Q8R4B8); experiment: Inhibition of NLRP3 inflammasome activation in LPS/Nigericin induced mouse BMDM cells assessed as effect on NLRP3 expression at 0.25 to 1 uM preincubated with LPS for 3 hrs followed by compound addition for 40 mins and further stimulated with nigericin for 40 mins by Western blot analysis; format: cell-based; details: dose 0.25-1 µM, time 80.0 min
# [14] = biological target: Glucocorticoid receptor (Homo sapiens) (UniProt P04150); experiment: Activation of GR receptor (unknown origin) at 1 uM relative to control
# [15] = biological target: 3',5'-cyclic-AMP phosphodiesterase 4D (Homo sapiens) (UniProt Q08499); experiment: Inhibition of PDE4D2 (unknown origin) at 1 uM relative to control
# [16] = biological target: Prostaglandin E2 receptor EP2 subtype (Homo sapiens) (UniProt P43116); experiment: Activation of EP2 receptor (unknown origin) at 1 uM relative to control
# Sequence of Prostaglandin E2 receptor EP2 subtype (Homo sapiens) (P43116 whole entry): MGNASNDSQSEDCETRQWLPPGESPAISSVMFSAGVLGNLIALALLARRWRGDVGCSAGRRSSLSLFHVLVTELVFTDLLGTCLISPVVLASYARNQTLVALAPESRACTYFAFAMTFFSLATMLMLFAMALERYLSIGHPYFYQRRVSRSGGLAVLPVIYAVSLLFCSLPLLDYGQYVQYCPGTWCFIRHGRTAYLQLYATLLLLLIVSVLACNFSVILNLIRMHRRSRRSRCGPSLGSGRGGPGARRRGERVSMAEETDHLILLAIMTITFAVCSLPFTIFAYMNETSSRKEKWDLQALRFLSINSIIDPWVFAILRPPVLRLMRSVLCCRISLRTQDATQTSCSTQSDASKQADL
# [17] = biological target: Androgen receptor (Homo sapiens) (UniProt P10275); experiment: Activation of Androgen receptor (unknown origin) at 1 uM relative to control
# Sequence of Androgen receptor (Homo sapiens) (P10275 whole entry): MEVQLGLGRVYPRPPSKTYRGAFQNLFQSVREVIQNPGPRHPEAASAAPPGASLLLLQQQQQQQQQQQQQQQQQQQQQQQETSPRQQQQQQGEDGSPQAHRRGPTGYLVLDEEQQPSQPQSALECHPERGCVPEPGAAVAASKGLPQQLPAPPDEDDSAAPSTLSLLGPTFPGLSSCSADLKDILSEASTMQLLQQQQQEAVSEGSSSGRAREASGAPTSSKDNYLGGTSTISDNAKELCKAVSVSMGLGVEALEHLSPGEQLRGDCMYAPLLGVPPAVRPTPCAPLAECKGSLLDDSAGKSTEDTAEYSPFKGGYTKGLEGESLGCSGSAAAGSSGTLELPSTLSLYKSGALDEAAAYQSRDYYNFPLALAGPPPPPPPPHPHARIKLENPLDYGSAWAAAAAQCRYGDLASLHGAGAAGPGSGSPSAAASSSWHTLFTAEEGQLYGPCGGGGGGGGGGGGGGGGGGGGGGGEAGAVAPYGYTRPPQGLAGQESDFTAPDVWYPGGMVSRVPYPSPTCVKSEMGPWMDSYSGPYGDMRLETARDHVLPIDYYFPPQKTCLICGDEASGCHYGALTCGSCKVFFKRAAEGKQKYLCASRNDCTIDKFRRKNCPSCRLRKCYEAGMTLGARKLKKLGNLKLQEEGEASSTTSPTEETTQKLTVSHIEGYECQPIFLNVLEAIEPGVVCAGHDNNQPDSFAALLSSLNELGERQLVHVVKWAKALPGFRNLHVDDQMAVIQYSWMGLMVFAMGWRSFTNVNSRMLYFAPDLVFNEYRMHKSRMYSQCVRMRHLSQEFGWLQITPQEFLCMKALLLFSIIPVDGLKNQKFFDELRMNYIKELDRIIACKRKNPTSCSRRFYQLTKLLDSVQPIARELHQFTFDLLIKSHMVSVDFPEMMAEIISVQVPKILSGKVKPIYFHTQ
# [18] = biological target: Substance-K receptor (Homo sapiens) (UniProt P21452); experiment: Inhibition of NK2 receptor (unknown origin) at 1 uM relative to control
# [19] = biological target: P2X purinoceptor 3 (Homo sapiens) (UniProt P56373); experiment: Inhibition of P2X3 (unknown origin) at 1 uM relative to control
# THP-1 [20] = experiment: Binding affinity to NLRP3deltaLRR mutant in PMA- differentiated human THP-1 cells assessed as protection of pronase-mediated protein degradation at 100 to 1000 uM pretreated with LPS for 3 hrs followed by incubation with compound for 50 mins followed by pronase digestion for 30 mins by DARTS analysis; format: cell-based; details: dose 100-1000 µM, time 80.0 min
# [21] = Cytotoxicity against human PBMC cells at 1.25 uM measured after 24 hrs by CCK-8 method; format: toxicity, cell-based
# [22] = biological target: NACHT, LRR and PYD domains-containing protein 3 (Mus musculus) (UniProt Q8R4B8); experiment: Inhibition of NLRP3 inflammasome activation in LPS/Nigericin induced mouse BMDM cells assessed as effect on pro-IL-1 beta expression at 0.25 to 1 uM preincubated with LPS for 3 hrs followed by compound addition for 40 mins and further stimulated with nigericin for 40 mins by Western blot analysis; format: cell-based; details: dose 0.25-1 µM, time 80.0 min
# [23] = Drug distribution in C57BL/6 mouse plasma at 30 mg/kg, ip measured after 0.5 hrs by LC-MS/MS analysis; format: ADME, organism-based
# [24] = biological target: Voltage-gated inwardly rectifying potassium channel KCNH2 (Homo sapiens, UniProt Q12809); experiment: Inhibition of human ERG expressed in HEK293 cells; format: toxicity, cell-based
# Mus musculus [25] = experiment: Anti-colitis activity against DSS-induced ulcerative colitis C57BL/6 mouse model assessed as alleviation of mucosal damage in colon at 15 to 30 mg/kg, ip administered daily and measured after 10 days by H and E staining based analysis; format: functional, organism-based; details: dose 15-30 mg/kg, time 10.0 day
# THP-1 [26] = experiment: Inhibition of pyroptosis in LPS/nigericin induced PMA-differentiated human THP-1 cells assessed as reduction in LDH release at […] preincubated with LPS for 3 hrs followed by compound addition for 40 mins and further stimulated with nigericin for 40 mins by LDH assay; format: functional, cell-based; details: dose lower 0.25 µM, time 80.0 min
# [27] = Drug distribution in C57BL/6 mouse colon at 30 mg/kg, ip measured after 8 hrs by LC-MS/MS analysis; format: ADME, organism-based; details: read-out: Drug uptake
# Cytochrome P450 2B6 = Cytochrome P450 2B6 (Homo sapiens, UniProt P20813); experiment: Inhibition of CYP2B6 in human liver microsomes preincubated for 5 mins followed by NADPH addition and measured after 30 to 60 mins by LC-MS/MS analysis; format: ADME, Microsome
# BMDM = experiment: Induction of DNA damage in mouse BMDM cells assessed as DNA fragmentation at 1 uM measured after 24 hrs by fluorescence microscope based comet assay; format: functional, cell-based
smiles,measurement,setting,value
C=C1C(=O)O[C@@H]2C[C@@]3(C)CC[C@@H](OC(=O)c4cnc(Cl)cc4Cl)C(=C)[C@@H]3C[C@H]12,IC50,[1],0.739 µM
same,Activity,Mus musculus [2],Active
same,inhibition,[3],Active
same,half-life,[4],6.83 h
same,inhibition,[5],< 50%
same,half-life,[6],1.09 h
same,Activity,[7],Non-Toxic
same,inhibition,[8],< 50%
same,Activity,[9],< 50%
same,inhibition,[10],< 50%
same,Activity,[11],< 50%
same,IC50,Cytochrome P450 1A2,> 100 µM
same,Cmax,[12],1.57 ng/mL
same,inhibition,[13],inactive
same,Activity,[14],< 50%
same,inhibition,[15],< 50%
same,Activity,[16],< 50%
same,Activity,[17],< 50%
same,inhibition,[18],< 50%
same,inhibition,[19],< 50%
same,Activity,THP-1 [20],Active
same,Activity,[21],Toxic
same,inhibition,[22],inactive
same,concentration at 0.5 h,[23],0.22 ng/mL
same,IC50,[24],10.6 µM
same,Activity,Mus musculus [25],Active
same,inhibition,THP-1 [26],Active
same,concentration at 8 h,[27],80.2 ng/g
same,IC50,Cytochrome P450 2B6,> 100 µM
same,Activity,BMDM,Active
